Columns and labels:
WDR46 = WDR46 (Homo sapiens, UniProt O15213); assay: TPP-CCR in living HL-60 cells
UBE2O = target: T1, UBE2O (Homo sapiens, UniProt Q9C0C9); assay: TPP-CCR in living HL-60 cells; type: cell-based
T1 construct: endogenous in cells; host or cells: HL-60 (ATCC CCL-240)
T1 sequence (Q9C0C9 1-1292): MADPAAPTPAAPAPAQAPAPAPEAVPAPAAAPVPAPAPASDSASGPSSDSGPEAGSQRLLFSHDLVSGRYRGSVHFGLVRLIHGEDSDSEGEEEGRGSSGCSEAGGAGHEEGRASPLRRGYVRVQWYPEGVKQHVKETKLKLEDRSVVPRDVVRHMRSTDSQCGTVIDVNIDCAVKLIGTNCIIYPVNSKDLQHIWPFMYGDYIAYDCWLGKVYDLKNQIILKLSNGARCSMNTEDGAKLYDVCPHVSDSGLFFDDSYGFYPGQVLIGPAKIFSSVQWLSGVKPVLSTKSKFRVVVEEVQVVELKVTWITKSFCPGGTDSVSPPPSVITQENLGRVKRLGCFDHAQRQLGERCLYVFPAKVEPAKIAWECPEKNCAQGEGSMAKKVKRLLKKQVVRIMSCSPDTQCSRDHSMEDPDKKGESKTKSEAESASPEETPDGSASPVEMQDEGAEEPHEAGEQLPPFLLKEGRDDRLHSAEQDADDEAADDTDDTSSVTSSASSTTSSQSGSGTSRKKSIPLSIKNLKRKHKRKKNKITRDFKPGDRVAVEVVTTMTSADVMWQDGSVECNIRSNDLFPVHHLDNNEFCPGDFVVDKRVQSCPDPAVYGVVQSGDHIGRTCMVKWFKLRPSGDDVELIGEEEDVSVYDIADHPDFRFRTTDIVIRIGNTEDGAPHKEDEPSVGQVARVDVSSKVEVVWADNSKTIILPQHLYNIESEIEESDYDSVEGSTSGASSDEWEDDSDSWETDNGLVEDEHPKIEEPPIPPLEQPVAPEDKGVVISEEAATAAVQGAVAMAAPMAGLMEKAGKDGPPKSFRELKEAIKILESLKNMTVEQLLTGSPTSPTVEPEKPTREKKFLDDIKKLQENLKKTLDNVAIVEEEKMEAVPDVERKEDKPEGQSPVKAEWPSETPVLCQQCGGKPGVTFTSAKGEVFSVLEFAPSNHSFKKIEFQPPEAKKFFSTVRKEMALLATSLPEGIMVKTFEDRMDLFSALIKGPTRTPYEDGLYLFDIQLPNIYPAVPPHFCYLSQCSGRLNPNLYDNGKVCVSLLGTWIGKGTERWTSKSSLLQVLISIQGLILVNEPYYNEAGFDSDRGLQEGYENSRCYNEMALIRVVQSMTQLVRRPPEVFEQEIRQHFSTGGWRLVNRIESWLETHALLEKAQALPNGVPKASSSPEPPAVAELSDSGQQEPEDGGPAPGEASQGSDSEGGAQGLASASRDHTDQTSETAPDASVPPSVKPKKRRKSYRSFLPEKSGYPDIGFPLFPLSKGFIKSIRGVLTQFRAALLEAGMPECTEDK
Excerpt: Therefore, we performed TPP with compound concentration range (TPP-CCR) experiments according to published procedures. In brief, after preparing tryptic peptides from the non-denatured protein fractions (used for immunoblotting in the previous sections) applying the SP3 method, the peptides were labeled using TMT10plex, coding for inhibitor concentration, and the samples belonging to a TMT set were combined, offline high-pH fractionated, and analyzed by MS.
HL-60 cells were expanded as described above for CETSA and TPP-TR to 1.25 million cells per milliliter. […] A number of 2.5 million cells in 2 mL of medium were added to each tube and incubated (1 h, 37 °C). After centrifugation (300 rcf, 3 min, r.t.) and removing all of the supernating culture medium, the cells were washed once with 2 mL and once with 0.5 mL PBS (r.t.) by gently resuspending the cells, followed by centrifugation (300 rcf, 3 min, r.t.) and the complete removal of the supernatants.
After transferring the cells from the 2 mL Eppendorf tubes into correspondingly labeled PCR tubes (tube strips) using 100 µL of ice-cold PBS supplemented with protease inhibitors for resuspending the cells, the samples were further processed as described above for CETSA and TPP-TR, however, by applying a single treatment temperature of 51 °C.
For each sample set comprising ten compound concentration range samples, a same volume of the cell extracts containing the fraction of soluble, non-denatured proteins, corresponding to an average of 5 µg total protein, was used for further analysis. The calculated volume was respectively transferred into PCR tubes of a tube strip and supplemented with SDS sample buffer without DTT and bromophenol blue (final concentrations: 7.5% glycerol, 3% SDS, 37.5 mM Tris/HCl pH 7.0) and ddH2O to a final volume of 10 µL, respectively. Reduction and alkylation were performed by addition of 2.5 µL 100 mM dithiothreitol (DTT; incubation: 20 min, 56 °C, 1000 rpm in an Eppendorf ThermoMixer C, covering the tubes with aluminum foil to minimize condensation in the lids) and 3.33 µL 300 mM iodoacetamide (IAA; incubation: 15 min, r.t., in the dark without shaking), as well as 2.5 µL 100 mM DTT (incubation: 15 min, r.t., without shaking; quenching of excess of IAA). […] The beads were collected and washed (3× 200 µL 80% ethanol p.a. in HPLC-MS grade water, 1 × 200 µL acetonitrile (ACN; HPLC gradient grade)) using a device for handling of magnetic particles [patent US20100200405A1]. The ACN of the last washing step was completely removed by aspiration without letting the beads dry out.
Tryptic digest was performed on-bead by resuspending (use of an ultrasound bath may be required) the beads in 20 µL 50 mM TEAB in HPLC-MS grade water containing 0.1 µg Trypsin/Lys-C mix and 16.5 h incubation at 37 °C and 1000 rpm (Eppendorf ThermoMixer C, covering the tubes with aluminum foil to minimize condensation in the lids). Tryptic fragmentation of proteins was optimized by addition of another 0.1 µg of Trypsin/Lys-C mix in 2 µL 50 mM TEAB and 4 h incubation at 37 °C and 1000 rpm. After centrifugation for about 1 min in a table top centrifuge and magnetic concentration and retention of the beads at the inner tube wall, the supernatants containing the peptides were transferred into new PCR tubes (of tube strips) and were stored at −80 °C. The beads were discarded.
Half of the peptide samples (11 µL containing about 2.5 µg peptides) were transferred into new PCR tubes (of tube strips) and allowed to equilibrate to r.t. TMT labeling reagents were reconstituted as described for the TPP-TR samples, and 1 µL each was added to the reconstituted peptides according to the following scheme and homogenized immediately by aspiration and dispensing:
Peptide separation was performed as described above for the analysis of TPP-TR samples. […]

[1] = living HL-60 cells, […] °C, TMT-MS

Chain of WDR46 (O15213 whole entry): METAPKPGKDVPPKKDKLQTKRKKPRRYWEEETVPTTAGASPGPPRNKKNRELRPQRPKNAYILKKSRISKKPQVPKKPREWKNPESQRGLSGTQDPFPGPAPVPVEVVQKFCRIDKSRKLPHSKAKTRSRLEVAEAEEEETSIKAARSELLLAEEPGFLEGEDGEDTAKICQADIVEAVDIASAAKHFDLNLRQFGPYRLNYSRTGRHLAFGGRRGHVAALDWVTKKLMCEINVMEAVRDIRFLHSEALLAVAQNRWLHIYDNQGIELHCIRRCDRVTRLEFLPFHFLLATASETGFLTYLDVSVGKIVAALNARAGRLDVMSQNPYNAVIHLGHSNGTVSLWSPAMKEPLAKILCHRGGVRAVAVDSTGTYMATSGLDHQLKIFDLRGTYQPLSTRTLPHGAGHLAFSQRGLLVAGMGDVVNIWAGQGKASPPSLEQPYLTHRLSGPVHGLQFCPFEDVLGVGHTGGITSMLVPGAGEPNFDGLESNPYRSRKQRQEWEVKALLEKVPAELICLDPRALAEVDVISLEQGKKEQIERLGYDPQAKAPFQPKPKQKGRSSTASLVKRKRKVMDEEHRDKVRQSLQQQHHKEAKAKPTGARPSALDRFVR

SMILES: C[S+]([O-])c1ccc(-c2nc(-c3ccncc3)c(-c3ccc(F)cc3)[nH]2)cc1 (centres unmarked) [SB203580]
- EC50 (WDR46): 32.4 nM
- Hill slope (WDR46) (WDR46; [1]): 0.23

SMILES: Cc1cnc(Nc2ccc(F)cc2Cl)nc1-c1c[nH]c(C(=O)N[C@H](CO)c2cccc(Cl)c2)c1 [ERK 11e]
- Hill slope (UBE2O; TPP-CCR, living cells, UBE2O): 0.37
- Hill slope (UBE2O) (UBE2O; [1]): 0.37
- EC50 (UBE2O; living HL-60 cells, […] °C, TMT-MS, read-out: pEC50 (UBE2O) (converted)): 186 nM
